Source: patent US20250026721A1, “COMPOUNDS AND METHODS FOR MODULATING RAS-PI3K” (Vividion Therapeutics, Inc., priority 2023, published 2025)

Assays:
PIK3CA = target: T1, PIK3CA (Homo sapiens, UniProt P42336); test: In vitro ELISA target engagement assay for PIK3CA in Jurkat cellular lysate (competition with PIK3CA Biotin Probe); type: binding; conditions: 1 hour at rt, then 500 nM PIK3CA Biotin Probe, read-out: Elisa Target Engagement Assay (TE50)
T1 construct: endogenous in cells; host or cells: Jurkat cell lysate
T1 sequence (P42336 whole entry): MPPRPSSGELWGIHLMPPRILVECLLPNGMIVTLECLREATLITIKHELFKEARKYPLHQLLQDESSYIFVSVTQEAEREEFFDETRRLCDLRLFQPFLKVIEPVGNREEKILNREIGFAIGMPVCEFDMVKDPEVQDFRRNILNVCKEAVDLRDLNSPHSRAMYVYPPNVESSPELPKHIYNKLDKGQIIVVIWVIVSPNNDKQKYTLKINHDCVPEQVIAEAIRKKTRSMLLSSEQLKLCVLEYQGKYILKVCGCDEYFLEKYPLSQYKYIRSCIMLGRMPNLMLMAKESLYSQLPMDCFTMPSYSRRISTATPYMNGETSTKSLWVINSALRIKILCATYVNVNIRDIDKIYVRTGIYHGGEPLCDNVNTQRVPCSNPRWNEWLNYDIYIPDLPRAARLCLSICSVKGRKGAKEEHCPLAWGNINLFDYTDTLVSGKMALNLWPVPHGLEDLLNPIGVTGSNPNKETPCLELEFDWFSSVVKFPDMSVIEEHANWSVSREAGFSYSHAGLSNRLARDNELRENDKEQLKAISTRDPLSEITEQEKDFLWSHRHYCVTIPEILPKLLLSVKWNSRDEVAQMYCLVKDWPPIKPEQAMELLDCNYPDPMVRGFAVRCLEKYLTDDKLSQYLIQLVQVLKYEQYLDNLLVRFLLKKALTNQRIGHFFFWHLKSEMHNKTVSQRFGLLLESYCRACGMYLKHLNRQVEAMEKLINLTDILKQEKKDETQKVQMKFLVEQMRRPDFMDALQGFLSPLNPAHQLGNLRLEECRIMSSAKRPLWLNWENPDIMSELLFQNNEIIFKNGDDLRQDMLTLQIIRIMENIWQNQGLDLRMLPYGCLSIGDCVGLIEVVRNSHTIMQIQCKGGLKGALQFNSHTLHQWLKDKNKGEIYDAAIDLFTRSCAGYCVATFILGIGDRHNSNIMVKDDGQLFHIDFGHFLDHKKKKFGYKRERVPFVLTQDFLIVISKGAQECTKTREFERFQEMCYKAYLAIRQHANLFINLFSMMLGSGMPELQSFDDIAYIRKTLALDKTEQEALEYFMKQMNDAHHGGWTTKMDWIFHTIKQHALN
T1 sequence (P27986 whole entry partner): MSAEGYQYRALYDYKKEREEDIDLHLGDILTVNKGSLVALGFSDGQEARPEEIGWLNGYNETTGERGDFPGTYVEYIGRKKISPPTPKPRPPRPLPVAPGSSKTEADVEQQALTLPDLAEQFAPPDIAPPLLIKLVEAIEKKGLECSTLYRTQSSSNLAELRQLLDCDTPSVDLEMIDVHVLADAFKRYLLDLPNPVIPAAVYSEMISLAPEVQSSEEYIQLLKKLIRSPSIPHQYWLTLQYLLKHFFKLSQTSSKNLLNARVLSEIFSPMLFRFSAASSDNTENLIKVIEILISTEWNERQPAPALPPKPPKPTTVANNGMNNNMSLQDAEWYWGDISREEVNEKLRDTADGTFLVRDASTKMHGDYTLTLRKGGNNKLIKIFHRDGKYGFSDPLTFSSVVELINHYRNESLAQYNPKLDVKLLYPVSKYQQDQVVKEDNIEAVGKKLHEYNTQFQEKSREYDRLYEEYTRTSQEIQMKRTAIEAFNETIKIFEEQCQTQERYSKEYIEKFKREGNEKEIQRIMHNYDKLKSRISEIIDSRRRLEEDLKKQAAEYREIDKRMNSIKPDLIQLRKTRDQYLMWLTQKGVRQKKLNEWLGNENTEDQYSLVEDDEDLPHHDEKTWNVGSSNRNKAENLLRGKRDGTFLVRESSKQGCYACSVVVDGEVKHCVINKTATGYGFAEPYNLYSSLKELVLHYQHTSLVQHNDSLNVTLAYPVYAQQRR
How it was run: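 Jurkat lysate from sonicated frozen cells was preincubated 1 h at rt with serially diluted compound up to 200 μM, then labelled 1 h at rt with PIK3CA biotin probe at 500 nM final. Probe-bound PIK3CA was captured on antibody-coated plates and detected with Neutravidin-HRP luminescence; TE50 derived from the dose response.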

PIK3CA_C242 = target: T2, PIK3CA_C242 (Homo sapiens, UniProt P42336); test: Proteomic TE50 (IA-DTB / TMT mass spectrometry) in Jurkat cell lysate; type: binding; conditions: 1 hour at rt, 7-point dose response
T2 construct: endogenous in cells; host or cells: Jurkat cell lysate
T2 sequence (P42336 whole entry): as the sequence (P42336 whole entry) above
T2 sequence (P27986 whole entry partner): as the sequence (P27986 whole entry partner) above
How it was run: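 Jurkat lysate (500 μg) treated with compound (7-point, 1:5 dilutions) for 1 h at rt, then labelled with 200 μM IA-DTB for 1 h. After digestion and streptavidin enrichment, the C242 peptide was quantified by targeted MS3 TMT. TE50 was derived from reporter-ion S/N dose-response curves.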

Compound | IC50 (PIK3CA) | IC50 (PIK3CA_C242)
COc1ccc(S(=O)(=O)N2CCC(F)(C(=O)N[C@H](C)/C=C\S(C)(=O)=O)CC2)c(-c2ccccc2Cl)c1 [Compound 25, (R,Z)-1-((2′-chloro-5-methoxy-[1,1′-biphenyl]-2-yl)sulfonyl)-4-fluoro-N-(4-(methylsulfonyl)but-3-en-2-yl)piperidine-4-carboxamide] | 290 nM | 238 nM
COc1cccc(-c2cc(OC)ccc2S(=O)(=O)N2CCC(F)(C(=O)N[C@@H](C)/C=C\S(C)(=O)=O)CC2)c1 [Compound 5, (S,Z)-1-((3′,5-dimethoxy-[1,1′-biphenyl]-2-yl)sulfonyl)-4-fluoro-N-(4-(methylsulfonyl)but-3-en-2-yl)piperidine-4-carboxamide] | 200 nM | 187 nM
COc1cc(-c2ccccc2Cl)c(S(=O)(=O)N2CCC(F)(C(=O)N[C@H](C)/C=C\S(C)(=O)=O)CC2)cc1Cl [Compound 29, (R,Z)-1-((2′,4-dichloro-5-methoxy-[1,1′-biphenyl]-2-yl)sulfonyl)-4-fluoro-N-(4-(methylsulfonyl)but-3-en-2-yl)piperidine-4-carboxamide] | 570 nM | 390 nM
C[C@H](/C=C\S(C)(=O)=O)NC(=O)C1(F)CCN(S(=O)(=O)c2ccc(Cl)cc2-c2ccccc2)CC1 [Compound 20, (R,Z)-1-((5-chloro-[1,1′-biphenyl]-2-yl)sulfonyl)-4-fluoro-N-(4-(methylsulfonyl)but-3-en-2-yl)piperidine-4-carboxamide] | 680 nM | 462 nM
C[C@@H](/C=C\S(C)(=O)=O)NC(=O)C1(F)CCN(S(=O)(=O)c2ccc(N(C)C)cc2-c2ccccc2)CC1 [Compound 88, (S,Z)-1-((5-(dimethylamino)-[1,1′-biphenyl]-2-yl)sulfonyl)-4-fluoro-N-(4-(methylsulfonyl)but-3-en-2-yl)piperidine-4-carboxamide] | 79 nM | 86 nM
C[C@@H](/C=C\S(C)(=O)=O)NC(=O)C1(F)CCN(S(=O)(=O)c2ccc(Cl)cc2-c2cccc(C#N)c2)CC1 [Compound 8, (S,Z)-1-((5-chloro-3′-cyano-[1,1′-biphenyl]-2-yl)sulfonyl)-4-fluoro-N-(4-(methylsulfonyl)but-3-en-2-yl)piperidine-4-carboxamide] | 690 nM | 1350 nM
C[C@H](/C=C\S(C)(=O)=O)NC(=O)C1(F)CCN(S(=O)(=O)c2ccc(N(C)C)cc2-c2ccccc2)CC1 [Compound 91, (R,Z)-1-((5-(dimethylamino)-[1,1′-biphenyl]-2-yl)sulfonyl)-4-fluoro-N-(4-(methylsulfonyl)but-3-en-2-yl)piperidine-4-carboxamide] | 280 nM | 430 nM
CC[C@@H](/C=C\S(C)(=O)=O)NC(=O)C1(F)CCN(S(=O)(=O)c2ccc(Cl)cc2-c2ccccc2)CC1 [Compound 84, (S,Z)-1-((5-chloro-[1,1′-biphenyl]-2-yl)sulfonyl)-4-fluoro-N-(1-(methylsulfonyl)pent-1-en-3-yl)piperidine-4-carboxamide] | 510 nM | 450 nM
C[C@@H](/C=C\S(C)(=O)=O)NC(=O)C1(F)CCN(S(=O)(=O)c2ccc(Cl)cc2-c2cccc(Cl)c2)CC1 [Compound 3, (S,Z)-1-((3′,5-dichloro-[1,1′-biphenyl]-2-yl)sulfonyl)-4-fluoro-N-(4-(methylsulfonyl)but-3-en-2-yl)piperidine-4-carboxamide] | 90 nM | 110 nM
CCOc1ccc(S(=O)(=O)N2CCC(F)(C(=O)N[C@H](C)/C=C\S(C)(=O)=O)CC2)c(-c2ccccc2C)c1 [Compound 102, (R,Z)-1-((5-ethoxy-2′-methyl-[1,1′-biphenyl]-2-yl)sulfonyl)-4-fluoro-N-(4-(methylsulfonyl)but-3-en-2-yl)piperidine-4-carboxamide] | 730 nM | 610 nM
COc1ccc(S(=O)(=O)N2CCC(F)(C(=O)N[C@@H](C)/C=C\S(C)(=O)=O)CC2)c(-c2ccccc2)c1 [Compound 4, (S,Z)-4-fluoro-1-((5-methoxy-[1,1′-biphenyl]-2-yl)sulfonyl)-N-(4-(methylsulfonyl)but-3-en-2-yl)piperidine-4-carboxamide] | 140 nM | 206 nM

Continued, values first:

IC50 (PIK3CA) | IC50 (PIK3CA_C242) | Compound
1100 nM | 570 nM | C[C@H](/C=C\S(C)(=O)=O)NC(=O)C1(F)CCN(S(=O)(=O)c2cn(C)c(=O)cc2-c2ccccc2Cl)CC1 [Compound 274, (R,Z)-1-((4-(2-chlorophenyl)-1-methyl-6-oxo-1,6-dihydropyridin-3-yl)sulfonyl)-4-fluoro-N-(4-(methylsulfonyl)but-3-en-2-yl)piperidine-4-carboxamide]
820 nM | 310 nM | Cc1ccccc1-c1cc(OC2CC2)ccc1S(=O)(=O)N1CCC(F)(C(=O)N[C@H](C)/C=C\S(C)(=O)=O)CC1 [Compound 106, (R,Z)-1-((5-cyclopropoxy-2′-methyl-[1,1′-biphenyl]-2-yl)sulfonyl)-4-fluoro-N-(4-(methylsulfonyl)but-3-en-2-yl)piperidine-4-carboxamide]
110 nM | 61 nM | COc1cc(-c2ccccc2C)c(S(=O)(=O)N2CCC(F)(C(=O)N[C@@H](C)/C=C\S(C)(=O)=O)CC2)cn1 [Compound 190, (S,Z)-4-fluoro-1-((6-methoxy-4-(o-tolyl)pyridin-3-yl)sulfonyl)-N-(4-(methylsulfonyl)but-3-en-2-yl)piperidine-4-carboxamide]
340 nM | 261 nM | Cc1ccccc1-c1cc(N2CCC2)ccc1S(=O)(=O)N1CCC(F)(C(=O)N[C@H](C)/C=C\S(C)(=O)=O)CC1 [Compound 116, (R,Z)-1-((5-(azetidin-1-yl)-2′-methyl-[1,1′-biphenyl]-2-yl)sulfonyl)-4-fluoro-N-(4-(methylsulfonyl)but-3-en-2-yl)piperidine-4-carboxamide]
560 nM | 440 nM | C[C@H](/C=C\S(C)(=O)=O)NC(=O)C1(F)CCN(S(=O)(=O)c2ncc(Br)cc2-c2ccccc2Cl)CC1 [Compound 218, (R,Z)-1-((5-bromo-3-(2-chlorophenyl)pyridin-2-yl)sulfonyl)-4-fluoro-N-(4-(methylsulfonyl)but-3-en-2-yl)piperidine-4-carboxamide]
610 nM | 490 nM | Cc1ccccc1-c1cc(N2CCOCC2)ccc1S(=O)(=O)N1CCC(F)(C(=O)N[C@H](C)/C=C\S(C)(=O)=O)CC1 [Compound 122, (R,Z)-4-fluoro-1-((2′-methyl-5-morpholino-[1,1′-biphenyl]-2-yl)sulfonyl)-N-(4-(methylsulfonyl)but-3-en-2-yl)piperidine-4-carboxamide]
480 nM | 510 nM | CC#CCOc1cccc(-c2cc(Cl)ccc2S(=O)(=O)N2CCC(F)(C(=O)N[C@@H](C)/C=C\S(C)(=O)=O)CC2)c1 [Compound 264, (S,Z)-1-((3′-(but-2-yn-1-yloxy)-5-chloro-[1,1′-biphenyl]-2-yl)sulfonyl)-4-fluoro-N-(4-(methylsulfonyl)but-3-en-2-yl)piperidine-4-carboxamide]
830 nM | 810 nM | C[C@H](/C=C\S(C)(=O)=O)NC(=O)C1(F)CCN(S(=O)(=O)c2ccc(N3CCCC3)cc2-c2ccccc2)CC1 [Compound 117, (R,Z)-4-fluoro-N-(4-(methylsulfonyl)but-3-en-2-yl)-1-((5-(pyrrolidin-1-yl)-[1,1′-biphenyl]-2-yl)sulfonyl)piperidine-4-carboxamide]
